{"source": "patent US12599606B2", "about": "“Therapies with 3rd generation EGFR tyrosine kinase inhibitors” (Janssen Biotech, Inc., priority 2019, dated 2026)", "key": {"[1]": {"test_system": "EGFR mutation positive (EGFRm+) advanced NSCLC", "test": "Clinical Trial No. NCT03046992, phase I/II lazertinib monotherapy", "type": "in vivo, human", "settings": "for ORR, (%): T790M+ patients", "excerpt": "Clinical Trial No. NCT03046992 was primarily designed to evaluate the safety, tolerability, and efficacy of YH25448 in patients with EGFR mutation positive (EGFRm+) advanced NSCLC with or without asymptomatic brain metastasis who progressed following prior therapy with an EGFR TKIs agent.\nPatients with advanced and metastatic NSCLC who had progressed after treatment with EGFR-TKIs with/without asymptomatic brain metastases (BM) were enrolled in an open-label, multicenter, phase I/II study with dose-escalation and expansion cohorts. Lazertinib was administered once daily at doses between 20 to 320 mg in a 21-day cycle. Patients were assessed for safety, tolerability, pharmacokinetics and efficacy. T790M status was confirmed in the dose-expansion cohorts."}, "[2]": {"test_system": "H1975 human lung xenografts", "test": "H1975 human lung carcinoma xenograft model, antitumor activity", "description": "The animals were fed ad libitum water (reverse osmosis, 1 ppm Cl) and NIH 31 Modified and Irradiated Lab Diet® consisting of 18.0% crude protein, 5.0% crude fat, and 5.0% crude fiber. The mice were housed on irradiated Enrich-o'cobs™ Laboratory Animal Bedding in static microisolators on a 12-hour light cycle at 20-22° C. (68-72° F.) and at 40-60% humidity. All studies complied with the recommendations of the Guide for Care and Use of Laboratory Animals with respect to restraint, husbandry, surgical procedures, feed and fluid regulation, and veterinary care. […]\nOn the day of implant, the NCI-H1975 cells were harvested during log phase growth and resuspended in phosphate buffered saline (PBS) at a concentration of 5×10^7 cells/mL. Xenografts were initiated by subcutaneously implanting 5×10^6 NCI-H1975 cells per animal (0.1 mL suspension) into the right flank of each test animal and tumors were monitored as their volumes approached the target range of 150-200 mm^3. Fifteen days later, animals were sorted into bins by calculated tumor volumes based on vernier caliper measurements of tumor width and length to the nearest mm. […] Tumor size, in mm3, was calculated using the following formula: Tumor Volume=(w^2×l)/2 where w=width and l=length, in mm, of the tumor. […]"}, "[3]": {"test_system": "EGFR Dell9/T790M mutant lung adenocarcinoma", "settings": "one patient, 40 mg daily, cited from earlier work"}, "H1975-HGF xenografts": {"test_system": "H1975-HGF xenografts", "test": "H1975-HGF human lung carcinoma xenograft model, antitumor activity", "description": "(§1) Female athymic nude mice were used in the studies (n=10/group). Treatment began when SC tumors reached approximately 100 to 300 mm^3 in size. and dosing was initiated according to the treatment plan summarized in Table 2. […] The control group was dosed with vehicle orally daily for 21 days, and the isotype control antibody was dosed twice a week IP for 3 weeks. Mice were monitored for body weight and tumor volume up to Day 95, and were euthanized when individual tumor volume reached 2,000 mm^3 or at study conclusion.\nTumor volume data were graphically represented as the mean tumor volume±SEM. Tumor volume was calculated using the formula: tumor volume (mm^3)=(D×d2)/2; where ‘D’ represents the larger diameter, and ‘d’ the smaller diameter of the tumor as determined by caliper measurements.\nThe % TGI was defined as the difference between mean tumor burden of the treated and control group, calculated as % ΔTGI=([(TVc−TVc0)−(TVt−TVt0)]/(TVc−TVc0))×100 where ‘TVc’ is the mean tumor burden of a given control group, ‘TVc0’ is the mean initial tumor burden of a given control group, ‘TVt’ is the mean tumor burden of the treated group, and ‘TVt0’ is the mean initial tumor burden of the treated group. […]\nSurvival data was graphed and analyzed using GraphPad Prism 7.04 for Windowswith day 1 as the treatment start date. […]"}, "[4]": {"test": "Body weight and clinical signs of nude mice bearing H1975 xenografts", "settings": "for body weight loss compared to the control group: H1975-xenograft-bearing nude mice, Day 29, 10 mg/kg; for animals euthanized due to negative clinical signs: H1975 model, n=10/group, unclear whether due to tumor burden or treatment", "description": "The mice were housed on irradiated Enrich-o'cobs™ Laboratory Animal Bedding in static microisolators on a 12-hour light cycle at 20-22° C. (68-72° F.) and at 40-60% humidity.\nas §1\n(§2) Relative body weight of individual mice was calculated using the formula: (W/W0)×100, where ‘W’ represents body weight on a particular day, and ‘W0’ represents body weight at initiation of treatment. Body weight was graphically represented as mean % of initial body weight±SEM.\nTumor volume and body weight data were graphically represented using Prism software (GraphPad, version 7). Statistical significance was evaluated for all pairwise comparisons on the last day of the study when at least eight mice remained in each group. Differences between groups were considered significant when p≤0.05. Statistical significance of tumor volume and body weight was calculated using the Linear Mixed-Effects analysis in R software version 3.4.2 (using Janssen's internally developed Shiny application version 3.3), with treatment and time as fixed effects and animal as random effect. Logarithmic transformation (base 10) was performed if individual longitudinal response trajectories were not linear. The information derived from this model was used to make pairwise treatment comparisons to the control group or between all the treatment groups."}, "[5]": {"test": "Body weight and clinical signs of nude mice bearing H1975-HGF xenografts", "type": "in vivo", "settings": "H1975-HGF model, n=10/group; unclear whether due to tumor burden or treatment", "description": "as §1, §2\nTumor volume and body weight data were graphically represented using Prism software (GraphPad, version 7). Statistical significance was evaluated for all pairwise comparisons on the last day of the study when at least eight mice remained in each group. Differences between groups were considered significant when p≤0.05. Statistical significance of tumor volume and body weight was calculated using the Linear Mixed-Effects analysis in R software version 3.4.2 (using Janssen's internally developed Shiny application version 3.3), with treatment and time as fixed effects and animal as random effect. […]"}, "advanced NSCLC": {"test_system": "advanced NSCLC", "test": "Study 61186372EDI1001, Phase 1 first-in-human dose escalation of JNJ-61186372 as monotherapy and in combination with lazertinib", "type": "in vivo", "quoted_text": "This study is a first-in-human, open-label, multicenter, 2-part, Phase 1 dose escalation study to evaluate the safety and PK, establish a recommended Phase 2 dose (RP2D) and recommended Phase 2 combination dose (RP2CD) regimen, and to assess the preliminary efficacy of JNJ-61186372 as a monotherapy and in combination with lazertinib in subjects who are≥18 years of age with advanced NSCLC.\nPart 1 JNJ-61186372 Monotherapy and Combination Dose Escalations: A traditional 3+3 design will be utilized to determine the MTD (or the maximum administered dose [MAD] if no MTD is defined) and the RP2D regimen(s) for JNJ-61186372 monotherapy, and the RP2CD of the JNJ-61186372 and lazertinib combination, in subjects with advanced NSCLC. The total number of subjects enrolled in each dose escalation will depend on the dose level at which the MTD or MAD is reached, and whether dose cohort expansions are indicated. […]\nAnti-tumor activity will be evaluated by clinical responses as per the Response Evaluation Criteria in Solid Tumors (RECIST v1.1) (Eisenhauer et al.., Eur J Cancer 2009;45(2):228-247) The investigator will evaluate sites of disease by radiological imaging, physical examination, and other procedures, as necessary, and all results will be recorded in the case report form (CRF). […]"}, "[6]": {"settings": "monotherapy, EGFR-mutated NSCLC"}, "[7]": {"settings": "Day 28, as compared to controls, 10 mg/kg"}}}
{"compound": "C=CC(=O)Nc1cc(Nc2nccc(-n3cc(CN(C)C)c(-c4ccccc4)n3)n2)c(OC)cc1N1CCOCC1", "note": "[Lazertinib, N-(5-(4-(4-((dimethylamino)methyl)-3-phenyl-1H-pyrazol-1-yl)pyrimidin-2-ylamino)-4-methoxy-2-morpholinophenyl)acrylamide]", "values": [{"measurement": "systemic exposure", "setting": "[1]; 20 to 320 mg once daily", "value": "increased dose-dependently"}, {"measurement": "ORR", "setting": "[1]; 93 T790M+ patients", "value": 69, "unit": "%"}, {"measurement": "TEAE constipation", "setting": "[1]; 115 patients", "value": 12, "unit": "%"}, {"measurement": "TEAE decreased appetite", "setting": "[1]; 115 patients", "value": 17, "unit": "%"}, {"measurement": "TEAE of grade ≥3 hyponatraemia", "setting": "[1]; 115 patients", "value": 2, "unit": "%"}, {"measurement": "TEAE of grade ≥3 nausea", "setting": "[1]; 115 patients", "value": 2, "unit": "%"}, {"measurement": "TEAE of grade ≥3 pneumonia", "setting": "[1]; 115 patients", "value": 2, "unit": "%"}, {"measurement": "TEAE pruritus", "setting": "[1]; 115 patients", "value": 19, "unit": "%"}, {"measurement": "TEAE rash", "setting": "[1]; 115 patients", "value": 14, "unit": "%"}, {"measurement": "tolerability", "setting": "[1]; EGFR T790M+ NSCLC patients, multiple dose levels", "value": "well tolerated"}, {"measurement": "ORR, (%)", "setting": "[1]; 20 mg QD, 2 evaluable", "value": 100, "unit": "%"}, {"measurement": "ORR, (%)", "setting": "[1]; 40 mg QD, 25 evaluable", "value": 68, "unit": "%"}, {"measurement": "ORR, (%)", "setting": "[1]; 80 mg QD, 18 evaluable", "value": 61, "unit": "%"}, {"measurement": "ORR, (%)", "setting": "[1]; 120 mg QD, 22 evaluable", "value": 77, "unit": "%"}, {"measurement": "ORR, (%)", "setting": "[1]; 160 mg QD, 18 evaluable", "value": 61, "unit": "%"}, {"measurement": "ORR, (%)", "setting": "[1]; 240 mg QD, 8 evaluable", "value": 75, "unit": "%"}, {"measurement": "dose-limiting toxicities", "setting": "[1]; dose-escalation cohort, 38 patients, 20 to 320 mg", "value": "No dose-limiting toxicities were observed"}, {"measurement": "objective response rate (ORR)", "setting": "[1]; evaluable patients (n=110) at data cut-off, 20 to 320 mg once daily", "value": 65, "unit": "%"}, {"measurement": "DLTs", "setting": "[1]; monotherapy FIH dose escalation, through 320 mg", "value": "no DLTs were observed"}, {"measurement": "dose from which clinical activity was demonstrated in the targeted population", "setting": "[1]; [6]", "value": 240, "unit": "mg"}, {"measurement": "intracranial ORR", "setting": "[1]; patients with BM (n=12)", "value": 50, "unit": "%"}, {"measurement": "CR (complete tumor regression)", "setting": "[2]; n=10/group, mice with CR", "value": "1 of 10"}, {"measurement": "extracranial tumor reduction", "setting": "[3]; tumor assessment after 6 weeks", "value": 12.7, "unit": "%"}, {"measurement": "intracranial tumor reduction", "setting": "[3]; tumor assessment after 6 weeks", "value": 49.3, "unit": "%"}, {"measurement": "overall tumor reduction", "setting": "[3]; tumor assessment after 6 weeks", "value": 25.9, "unit": "%"}, {"measurement": "adverse events", "setting": "[3]", "value": "without significant adverse events"}, {"measurement": "CR (complete tumor regression)", "setting": "H1975-HGF xenografts; n=10/group, mice with CR", "value": "2 of 10"}, {"measurement": "body weight loss compared to the control group", "setting": "[4]", "value": "some transient body weight loss"}, {"measurement": "animals euthanized due to negative clinical signs", "setting": "[4]", "value": "One"}]}
{"compound": "C=CC(=O)Nc1cc(Nc2nccc(-c3cn(C)c4ccccc34)n2)c(OC)cc1N(C)CCN(C)C", "note": "[Osimertinib, osimertinib, reference compound]", "values": [{"measurement": "mice found dead or euthanized due to negative clinical signs", "setting": "[5]", "value": "One"}, {"measurement": "body weight loss compared to the control group", "setting": "[4]", "value": "some transient body weight loss"}]}
{"compound": "JNJ-372", "values": [{"measurement": "DLTs", "setting": "advanced NSCLC; monotherapy FIH dose escalation, through 1400 mg", "value": "no DLTs were observed"}, {"measurement": "dose from which clinical activity was demonstrated in the targeted population", "setting": "advanced NSCLC; [6]", "value": 700, "unit": "mg"}, {"measurement": "mice found dead or euthanized due to negative clinical signs", "setting": "[5]", "value": "One"}, {"measurement": "TGI", "setting": "[2]; [7]", "value": 86, "unit": "%"}, {"measurement": "TGI", "setting": "H1975-HGF xenografts; [7]", "value": 70, "unit": "%"}, {"measurement": "animals euthanized due to negative clinical signs", "setting": "[4]", "value": "One"}]}
